Results as given in BindingDB's records for patent US20250214967 (Berrybio (Shanghai), 2025).

Target: Focal adhesion kinase 1 (Homo sapiens, UniProt Q05397)
Assay: FAK Kinase Assay
Protocol: The inhibitory activity of a compound against FAK was determined in a buffer containing 5 mM HEPES, pH 7.5, 0.01% Triton, 0.5 mM EGTA, and 0.01% BRIJ™-35 in a 384-well assay plate. The assay was carried out in the presence of the FAK at 1 nM and ATP at 6.8 μM using fluorescein-polyGT (0.2 μM) as an FAK substrate. Each assay mixture was incubated at room temperature for 30 min. A LANTHASCREEN Tb-PY20 antibody was added to each well to stop the enzymatic reaction. The plate was incubated at room temperature for 60 min before reading on an ENVISION using TR-FRET module (excitation at 340 nm and emission at 520 nm and 495 nm).

Chain of Focal adhesion kinase 1 (Q05397 whole entry): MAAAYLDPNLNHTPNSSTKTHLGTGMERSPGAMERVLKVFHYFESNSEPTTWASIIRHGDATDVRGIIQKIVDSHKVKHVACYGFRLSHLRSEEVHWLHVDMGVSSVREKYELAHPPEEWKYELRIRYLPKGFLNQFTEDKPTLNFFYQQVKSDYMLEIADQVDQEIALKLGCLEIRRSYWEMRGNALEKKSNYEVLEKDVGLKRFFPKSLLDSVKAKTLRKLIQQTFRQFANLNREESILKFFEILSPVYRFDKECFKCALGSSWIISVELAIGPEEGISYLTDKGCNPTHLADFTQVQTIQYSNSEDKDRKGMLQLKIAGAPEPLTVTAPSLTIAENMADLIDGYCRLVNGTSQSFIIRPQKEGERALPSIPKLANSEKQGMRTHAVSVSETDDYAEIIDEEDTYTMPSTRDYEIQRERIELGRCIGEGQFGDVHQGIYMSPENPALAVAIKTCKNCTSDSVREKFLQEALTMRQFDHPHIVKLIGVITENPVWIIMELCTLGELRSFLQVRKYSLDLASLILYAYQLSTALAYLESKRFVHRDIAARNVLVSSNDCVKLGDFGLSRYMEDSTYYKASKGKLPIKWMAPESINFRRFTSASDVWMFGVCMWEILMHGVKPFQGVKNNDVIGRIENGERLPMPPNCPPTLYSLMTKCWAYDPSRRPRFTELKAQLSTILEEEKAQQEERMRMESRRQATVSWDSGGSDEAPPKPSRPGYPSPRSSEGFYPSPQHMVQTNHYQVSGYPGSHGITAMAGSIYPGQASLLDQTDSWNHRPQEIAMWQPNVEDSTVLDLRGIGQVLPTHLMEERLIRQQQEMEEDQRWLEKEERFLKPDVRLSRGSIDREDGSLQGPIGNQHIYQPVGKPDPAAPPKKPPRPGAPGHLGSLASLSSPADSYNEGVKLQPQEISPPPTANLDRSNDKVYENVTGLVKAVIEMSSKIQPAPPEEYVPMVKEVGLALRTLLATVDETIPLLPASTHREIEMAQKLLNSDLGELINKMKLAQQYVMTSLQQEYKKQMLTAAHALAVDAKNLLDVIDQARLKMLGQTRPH

Molecule `Cc1cc(Cc2ncc(C(F)(F)F)c(NCC3C=C(N(C)S(C)(=O)=O)CCC3)n2)ccc1OCCOCCOCCOc1ccc2c(c1)C(=O)N(C1CCC(=O)NC1=O)C2=O` (stereo unspecified) [US20250214967, Compound A2] has an IC50 of 3 nM.
